Laboratory results published in the supplement of paper PMC10307832.

How the values were obtained:
Assay in all cases: relative viability (nuclei count vs DMSO), 5 days (fraction); higher = more cells survive
[1] = compound: CC1(C)CNc2cc(NC(=O)c3cccnc3NCc3ccncc3)ccc21 [Motesanib] + O=C(CCCCCCC(=O)Nc1ccccc1)NO [Vorinostat] (partner 1 µM)
Method in brief: (§1)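 Relative viability is defined as nuclei in treated wells over nuclei in vehicle wells. Duplicate plates were run and medians reported. Lung cancer cell lines in 1536-well plates were dosed by pin tool one day after seeding, with one drug or with a fixed anchor-drug dose plus five library-drug doses (not always all listed) in √10 steps, and nuclei were counted after 5 days.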

[2] = compound: C[C@@]1(C(=O)Nc2ccc(F)nc2)CCCN1c1nc(Nc2cc(C3CC3)n[nH]2)c2cccn2n1 + Nc1ncn([C@H]2C[C@H](O)[C@@H](CO)O2)c(=O)n1 [Decitabine] (partner 2 µM)
Method in brief: as §1

[3] = compound: C[C@@]1(C(=O)Nc2ccc(F)nc2)CCCN1c1nc(Nc2cc(C3CC3)n[nH]2)c2cccn2n1 + O=C(CCCCCCC(=O)Nc1ccccc1)NO [Vorinostat] (partner 1 µM)
Method in brief: as §1

[4] = compound: C[C@@]1(C(=O)Nc2ccc(F)nc2)CCCN1c1nc(Nc2cc(C3CC3)n[nH]2)c2cccn2n1 + Cc1nc(Nc2ncc(C(=O)Nc3c(C)cccc3Cl)s2)cc(N2CCN(CCO)CC2)n1 [Dasatinib] (partner 0.075 µM)
Method in brief: as §1

Cell Line	relative viability ([1]; first compound 0.01 µM)	relative viability ([1]; first compound 0.3162 µM)	relative viability ([1]; first compound 1 µM)	relative viability ([2]; first compound 0.04 µM)	relative viability ([2]; first compound 0.1265 µM)	relative viability ([2]; first compound 0.4 µM)	relative viability ([2]; first compound 1.265 µM)	relative viability ([3]; first compound 0.04 µM)	relative viability ([3]; first compound 0.1265 µM)	relative viability ([3]; first compound 0.4 µM)	relative viability ([3]; first compound 1.265 µM)	relative viability ([1]; first compound 0.03162 µM)	relative viability ([1]; first compound 0.1 µM)	relative viability ([4]; first compound 0.04 µM)	relative viability ([4]; first compound 0.1265 µM)	relative viability ([4]; first compound 0.4 µM)	relative viability ([4]; first compound 1.265 µM)
NCI-H1648	0.314	0.557	0.421	0.465	0.464	0.416	0.361	0.363	0.332	0.221	0.443						
SK-MES-1	1.13	1.16	1.16	0.333	0.424	0.333	0.344	1.21	1.05	0.859	0.354	1.12	1.25	0.27	0.244	0.159	0.153
HCC-366	0.382	0.375	0.308	0.315	0.292	0.265	0.265	0.395	0.315	0.2	0.0599	0.388	0.443	0.374	0.141	0.201	0.061
201T	0.929	1.01	1.01	0.813	0.714	0.671	0.862	0.858	0.755	0.634	0.62	0.974	1.08	0.326	0.29	0.301	0.324
HCC-827	0.759	0.666	0.885	0.295	0.312	0.351	0.305	0.891	0.933	0.731	0.823	0.945	0.881	0.34	0.395	0.222	0.339
NCI-H647	0.506	0.769	0.894	0.504	0.312	0.368	0.421	0.711	0.574	0.489	0.289	0.575	0.567	0.361	0.0884	0.105	0.214
NCI-H2023	0.729	0.838	0.723	0.234	0.228	0.177	0.139	0.75	0.201	0.419	0.127	0.606	0.615	0.407	0.165	0.154	0.105
NCI-H520	0.664	0.734	0.686	0.498	0.493	0.416	0.491	0.668	0.668	0.685	0.489	0.759	0.687	0.207	0.176	0.176	0.229
RERF-LC-KJ	0.625	0.808	0.789	0.662	0.629	0.468	0.467	0.747	0.605	0.621	0.467	0.711	0.745	0.577	0.436	0.42	0.385
A-427	0.96	0.89	0.88	0.514	0.413	0.489	0.501	0.93	0.857	0.864	0.49	0.87	0.913	0.632	0.557	0.617	0.453
NCI-H441	0.527	0.764	0.792	0.24	0.213	0.23	0.223	0.55	0.3	0.397	0.511	0.697	0.7	0.385	0.155	0.223	0.203
NCI-H1792				0.401	0.235	0.249	0.304							0.283	1.06	0.211	0.227
SK-LU-1	0.792	0.743	0.813	0.672	0.543	0.489	0.524	0.804	0.761	0.55	0.367	0.745	0.839	0.116	0.112	0.0979	0.0968
PC-3 [JPC-3]	0.686	0.828	0.789	0.786	0.608	0.804	0.766	0.717	0.718	0.755	0.525	0.71	0.774	1.09	0.94	0.891	0.787
EMC-BAC-2	0.408	0.417	0.43	0.709	0.737	0.578	0.717	0.37	0.343	0.304	0.178	0.475	0.426	0.242	0.212	0.136	0.167
LK-2	0.271	0.433	0.486		0.171	0.18	0.162	0.294	0.182	0.151	0.202	0.311	0.386	0.217	0.184	0.155	0.229
NCI-H2126	0.858	0.926	0.813	0.539	0.389	0.36	0.471	0.595	0.352	0.315	0.425	0.774	0.643	0.346	0.242	0.262	0.294
NCI-H3122	0.962	1.12	1	0.361	0.337	0.349	0.386	0.91	0.972	0.916	0.879	1.05	1.08	0.581	0.786	0.348	0.677
NCI-H1975	0.738	0.739	0.652	0.38	0.388	0.319	0.303	0.639	0.62	0.576	0.316	0.616	0.707	0.263	0.306	0.181	0.154
NCI-H1944	0.52	0.634	0.537	0.372	0.377	0.376	0.386	0.548	0.448	0.482	0.545	0.562	0.51	0.173	0.154	0.145	0.166
LU99A	0.473	0.645	0.484	0.764	0.585	0.527	0.738	0.368	0.245	0.229	0.193	0.593	0.505	0.409	0.257	0.219	0.197

Cell Line	relative viability ([1]; first compound 0.01 µM)	relative viability ([1]; first compound 0.3162 µM)	relative viability ([1]; first compound 1 µM)	relative viability ([2]; first compound 0.04 µM)	relative viability ([2]; first compound 0.1265 µM)	relative viability ([2]; first compound 0.4 µM)	relative viability ([2]; first compound 1.265 µM)	relative viability ([3]; first compound 0.04 µM)	relative viability ([3]; first compound 0.1265 µM)	relative viability ([3]; first compound 0.4 µM)	relative viability ([3]; first compound 1.265 µM)	relative viability ([1]; first compound 0.03162 µM)	relative viability ([1]; first compound 0.1 µM)	relative viability ([4]; first compound 0.04 µM)	relative viability ([4]; first compound 0.1265 µM)	relative viability ([4]; first compound 0.4 µM)	relative viability ([4]; first compound 1.265 µM)
SW 1573	0.77	0.834	1.04	0.465	0.413	0.429	0.177	0.667	0.585	0.482	0.263	0.799	0.738	0.494	0.275	0.213	0.114
NCI-H2347	0.538	0.704	0.621	0.571	0.574	0.487	0.599	0.581	0.487	0.415	0.543	0.555	0.527	0.289	0.288	0.343	0.189
NCI-H2009	0.671	0.729	0.71	0.401	0.369	0.406	0.313	0.789	0.768	0.747	0.598	0.636	0.823	0.279	0.224	0.166	0.154
HCC-15	0.883	0.875	0.877	0.48	0.375	0.43	0.311	0.689	0.51	0.555	0.774	0.843	0.866	0.458	0.233	0.271	0.297
HCC-44	1.14	1.08	1.09	0.957	0.949	0.811	0.84	1.08	1.02	0.887	1.08	1.02	1.17				
COR-L23	0.45	0.44	0.459	0.413	0.412	0.315	0.267	0.345	0.323	0.115	0.109	0.387	0.53	0.433	0.334	0.214	0.219
HCC-78	0.429		0.413	0.624	0.564	0.587	0.394	0.33	0.491	0.245	0.327	0.467	0.494	0.421	0.269	0.256	0.184
NCI-H727	1.12	1.26	1.29	0.8	0.636	0.529	0.362	1.3	0.774	0.774	0.474	1.29	1.39	0.278	0.182	0.273	0.229
NCI-H2087		0.764	0.791	0.237	0.191	0.258	0.16	0.635	0.774	0.473	0.357		0.561	0.727	0.568	0.508	0.389
BEN	0.543	0.654	0.772	0.702	0.583	0.737	0.562	0.537	0.492	0.467	0.439	0.56	0.637	0.32	0.382	0.329	0.271
LCLC-103H	0.756	1.02	0.762	0.745	0.661	0.71	0.712	0.763	0.62	0.593	0.563	0.843	0.815	0.412	0.35	0.237	0.174
EKVX	0.777	0.895	0.867	0.29	0.246	0.357	0.288	0.616	0.648	0.509	0.684	0.819	0.777	0.439	0.4	0.32	0.294
LXF-289	0.766	0.932	0.751	0.361	0.385	0.394	0.383	0.815	0.701	0.73	0.792	0.719	0.78	0.13	0.119	0.0865	0.0646
ABC-1	0.786	1.24	1.06	1.01	0.714	0.628	0.785	1.23	0.819	0.708	0.409	1.22	0.939	0.51	0.395	0.366	0.204
NCI-H650	0.435	0.549	0.477	0.291	0.311	0.305	0.29	0.42	0.195	0.334	0.257	0.439	0.554	0.404	0.283	0.321	0.29
NCI-H2228	0.667	0.528	0.612					0.474	0.444	0.513	0.298	0.539	0.737	0.414	0.278	0.22	0.208
NCI-H1563														0.404	0.413	0.343	0.323
A549				0.284	0.248	0.326	0.199										
NCI-H1623														0.465	0.247	0.438	0.412
IA-LM	0.91	0.935	0.767					0.914	0.999	0.836	0.928	0.936	0.953				
CAL-12T	0.797	0.795	0.86					0.574	0.567	0.461	0.33	0.847	0.692	0.239	0.146	0.101	0.0918
